Experimental data reported in patent publication US9993479B2, “Trk-inhibiting compound” (ONO PHARMACEUTICAL CO., LTD., priority 2013, dated 2018).

System: sodium monoiodoacetate-induced model rats
Test: Analgesic effect on sodium monoiodoacetate-induced model rats
Type: in vivo, rat
Conditions: MIA-induced model rats; test substance 0.1, 0.3 or 1 mg/kg orally twice a day day 14-23 and 3 h before measurement on day 24; Table 7 (positive control tramadol)

| Compound | Percent improvement (%) |
| --- | --- |
| Cc1cn(-c2ccc(C(F)(F)F)cc2NC(=O)Nc2cnc(Oc3ccc(-c4cc(Cl)cnc4N)cc3)nc2)nn1 [Example 8-1, 1-(2-(4-(2-amino-5-chloropyridin-3-yl)phenoxy)pyrimidin-5-yl)-3-(2-(4-methyl-1H-1,2,3-triazol-1-yl)-5-(trifluoromethyl)phenyl)urea] | 60% |
| Nc1ncc(Cl)cc1-c1ccc(Oc2ncc(NC(=O)Nc3cc(C(F)(F)F)ccc3-n3cccn3)cn2)cc1 [Example 7, 1-(2-(1H-pyrazol-1-yl)-5-(trifluoromethyl)phenyl)-3-(2-(4-(2-amino-5-chloropyridin-3-yl)phenoxy)pyrimidin-5-yl)urea] | 61% |
| O=C(Nc1cnc(Oc2ccc(-c3cnn4cccnc34)cc2)nc1)Nc1cc(C(F)(F)F)ccc1-c1cccnc1 [Example 21-13, 1-(2-(4-(pyrazolo[1,5-a]pyrimidin-3-yl)phenoxy)pyrimidin-5-yl)-3-(2-(pyridin-3-yl)-5-(trifluoromethyl)phenyl)urea] | 66% |
| COc1ccn2ncc(-c3ccc(Oc4ncc(NC(=O)Nc5cc(C(F)(F)F)ccc5-c5cccnc5)cn4)cc3)c2n1 [Example 21-9, 1-(2-(4-(5-methoxypyrazolo[1,5-a]pyrimidin-3-yl)phenoxy)pyrimidin-5-yl)-3-(2-(pyridin-3-yl)-5-(trifluoromethyl)phenyl)urea] | 64% |
| Nc1ncc(F)cc1-c1ccc(Oc2ncc(NC(=O)Nc3cc(C(F)(F)F)ccc3-n3ccnn3)cn2)cc1 [Example 14-5, 1-(2-(1H-1,2,3-triazol-1-yl)-5-(trifluoromethyl)phenyl)-3-(2-(4-(2-amino-5-fluoropyridin-3-yl)phenoxy)pyrimidin-5-yl)urea] | 47% |
| Nc1ncc(Cl)cc1-c1ccc(Oc2ncc(NC(=O)Nc3ccc(C(F)(F)F)cc3Cl)cn2)cc1 [Example 15-6, 1-(2-(4-(2-amino-5-chloropyridin-3-yl)phenoxy)pyrimidin-5-yl)-3-(2-chloro-4-(trifluoromethyl)phenyl)urea] | 51% |

Same assay, conditions: MIA-induced model rats; test substance 0.1, 0.3 or 1 mg/kg orally twice a day day 14-23 and 3 h before measurement on day 24; Table 8 (positive control morphine)

| Compound | Percent improvement (%) |
| --- | --- |
| CN(C)c1ccn2ncc(-c3ccc(Oc4ncc(NC(=O)Nc5cc(C(F)(F)F)ccc5-c5ccnn5C)cn4)cc3)c2n1 [Example 21-51, 1-(2-{4-[5-(dimethylamino)pyrazolo[1,5-a]pyrimidin-3-yl]phenoxy}-5-pyrimidinyl)-3-[2-(1-methyl-1H-pyrazol-5-yl)-5-(trifluoromethyl)phenyl]urea] | 68% |
| Nc1ncc(F)cc1-c1ccc(Oc2ncc(NC(=O)Nc3cc(C(F)(F)F)ccc3-c3cccnc3)cn2)cc1 [Example 14-6, 1-(2-(4-(2-amino-5-fluoropyridin-3-yl)phenoxy)pyrimidin-5-yl)-3-(2-(pyridin-3-yl)-5-(trifluoromethyl)phenyl)urea] | 53% |
| CN(C)c1ccn2ncc(-c3ccc(Oc4ncc(NC(=O)Nc5cc(C(F)(F)F)ccc5-c5cccnc5)cn4)cc3)c2n1 [Example 21-37, 1-(2-{4-[5-(dimethylamino)pyrazolo[1,5-a]pyrimidin-3-yl]phenoxy}-5-pyrimidinyl)-3-[2-(3-pyridinyl)-5-(trifluoromethyl)phenyl]urea] | 67% |
| Nc1ncc(Cl)cc1-c1ccc(Oc2ncc(NC(=O)Nc3cc(C(F)(F)F)ccc3-c3ccccc3)cn2)cc1 [Example 15-55, 1-{2-[4-(2-amino-5-chloro-3-pyridinyl)phenoxy]-5-pyrimidinyl}-3-[4-(trifluoromethyl)-2-biphenylyl]urea] | 62% |
| Nc1ncc(C(F)(F)F)cc1-c1ccc(Oc2ncc(NC(=O)Nc3cc(C(F)(F)F)ccc3-n3cc(Cl)cn3)cn2)cc1 [Example 15-87, 1-(2-{4-[2-amino-5-(trifluoromethyl)-3-pyridinyl]phenoxy}-5-pyrimidinyl)-3-[2-(4-chloro-1H-pyrazol-1-yl)-5-(trifluoromethyl)phenyl]urea] | 57% |
| CS(=O)(=O)c1ccc(C(F)(F)F)cc1NC(=O)Nc1cnc(Oc2ccc(-c3cc(C(F)(F)F)cnc3N)cc2)nc1 [Example 15-98, 1-(2-{4-[2-amino-5-(trifluoromethyl)-3-pyridinyl]phenoxy}-5-pyrimidinyl)-3-[2-(methylsulfonyl)-5-(trifluoromethyl)phenyl]urea] | 57% |
| CN(C)c1ccn2ncc(-c3ccc(Oc4ncc(NC(=O)Nc5cc(C(F)(F)F)ccc5-c5ccccc5)cn4)cc3)c2n1 [Example 21-70, 1-(2-{4-[5-(dimethylamino)pyrazolo[1,5-a]pyrimidin-3-yl]phenoxy}-5-pyrimidinyl)-3-[4-(trifluoromethyl)-2-biphenylyl]urea] | 61% |
| Cc1cccc(-c2ccc(C(F)(F)F)cc2NC(=O)Nc2cnc(Oc3ccc(-c4cnn5ccc(N(C)C)nc45)cc3)nc2)c1 [Example 21-73, 1-(2-{4-[5-(dimethylamino)pyrazolo[1,5-a]pyrimidin-3-yl]phenoxy}-5-pyrimidinyl)-3-[3′-methyl-4-(trifluoromethyl)-2-biphenylyl]urea] | 62% |
| Nc1ncc(C(F)(F)F)cc1-c1ccc(Oc2ncc(NC(=O)Nc3cc(C(F)(F)F)ccc3-n3ccc(C(F)(F)F)n3)cn2)cc1 [Example 15-52, 1-(2-{4-[2-amino-5-(trifluoromethyl)-3-pyridinyl]phenoxy}-5-pyrimidinyl)-3-{5-(trifluoromethyl)-2-[3-(trifluoromethyl)-1H-pyrazol-1-yl]phenyl}urea] | 60% |
| CS(=O)(=O)c1ccc(C(F)(F)F)cc1NC(=O)Nc1cnc(Oc2ccc(-c3cc(Cl)cnc3N)cc2)nc1 [Example 15-104, 1-{2-[4-(2-amino-5-chloro-3-pyridinyl)phenoxy]-5-pyrimidinyl}-3-[2-(methylsulfonyl)-5-(trifluoromethyl)phenyl]urea] | 54% |
| Nc1ncc(Cl)cc1-c1ccc(Oc2ncc(NC(=O)Nc3ccc(C(F)(F)F)cc3C(F)(F)F)cn2)cc1 [Example 15-77, 1-{2-[4-(2-amino-5-chloro-3-pyridinyl)phenoxy]-5-pyrimidinyl}-3-[2,4-bis(trifluoromethyl)phenyl]urea] | 55% |
| Nc1ncc(Cl)cc1-c1ccc(Oc2ncc(NC(=O)Nc3cc(C(F)(F)F)ccc3-n3cc(Cl)cn3)cn2)cc1 [Example 15-63, 1-{2-[4-(2-amino-5-chloro-3-pyridinyl)phenoxy]-5-pyrimidinyl}-3-[2-(4-chloro-1H-pyrazol-1-yl)-5-(trifluoromethyl)phenyl]urea] | 53% |

Same assay, conditions: MIA-induced model rats; tramadol 10 mg/kg subcutaneously 1 hour before measurement on day 24; Table 7

| Compound | Percent improvement (%) |
| --- | --- |
| COc1cccc(C2(O)CCCCC2CN(C)C)c1 (stereo not shown) [Tramadol, tramadol, reference compound] | 43% |
